Reference: patent US20120238491A1, “IMMUNOLOGICALLY ACTIVE LIPOPEPTIDES AND METHODS FOR USE THEREOF” (THERIMUNEX PHARMACEUTICALS, INC., priority 2009, published 2012)

Columns and labels:
Type in all cases: cell-based
[1] = test system: IL-18 mRNA; assay: IL-18 mRNA expression in human fibroblasts
Method: (§1) Therefore we speculated that the diacylglycerol moiety enabled the peptide to cross the cell membrane. To test this hypothesis and to ascertain the biological role of the diacylglycerol moiety in compound pDAG, if any, the peptide moiety transfected into human fibroblasts or diacylglycerol alone were evaluated by measuring the expression of mRNA (IL-1, IL-6, IL-8, IL-18, and IL-33). […] Diacylglycerol could stimulate mRNA expression of IL-33 and IL-18, but not IL-1 in fibroblasts. […] Normal primary human fibroblasts obtained from the Coriell Institute (Camden, N.J.) were cultured in 70 mm dishes in DMEM supplemented with 10% FBS and 1× penicillin/streptomycin at 37° C. and 5% CO2. Human fibroblasts were incubated in the presence of the serum fractions, compound pDAG, the peptide moiety of pDAG, or diacylglycerol. In the initial experiments we examined the differences between fibroblasts treated with the various serum fractions, synthetic pDAG (the peptide moiety from pDAG or diacylglycerol), fibroblasts treated with LPS as a positive control, and fibroblasts without treatment. The culture medium was stored at −80° C. for ELISA of the excreted cytokine proteins (see below). Total RNA from fibroblasts was extracted using the RNeasy Mini kit (Qiagen, Valencia, Calif.) according to the manufacturer's protocol. To verify the expression of transcripts; 2.0 μg of total RNA was reverse-transcribed using Super-script-III reverse transcriptase (Invitrogen, Carlsbad Calif.), according to the manufacturer's protocol. Transcripts were quantified using SYBR Green PCR amplification (Perkin Elmer, Waltham Mass.). Primers employed in these studies are outlined in Table 6, below. All transcripts were normalized to β-actin. Briefly, 0.4 μg/μL of cDNA was tested with 10 μM of each specific primer and 1× SYBR Green in a total volume of 20 uL. Lipofection Studies. Cells were cultured so that at the time of transfection they were 50-80% confluent. Five microliters of the stock peptide moiety from pDAG was diluted in Opti-MEM Reduced Serum Medium to give a final concentration of 5 μg/mL. PLUS reagent (0.5 μL) and lipofectamine (1 μL) were then added to the peptide Opti-MEM solution, vortexed and incubated at room temperature for 30 min. Five hundred microliters of complete DMEM was added to the fibroblasts and 0.6 μL of the peptide/lipofectamine was added and allowed to incubate overnight. RNA was extracted and processed as described above.

[2] = test system: IL-1 mRNA; assay: IL-1 mRNA expression in human fibroblasts; settings: transfected peptide 10 ng/mL (~3 nM)
Method: as §1, with “PLUS reagent (0.5 μL) and lipofectamine (1 μL) were then added to the peptide Opti-MEM solution, vortexed and incubated at room temperature for 30 min. Five hundred microliters of complete DMEM was added to the fibroblasts and 0.6 μL of the peptide/lipofectamine was added and allowed to incubate overnight. RNA was extracted and processed as described above.” left out

[3] = test system: MCP-1 mRNA; assay: MCP-1 mRNA expression in human fibroblasts; settings: peptide transfected
Method: (§2) mRNA Expression Experiments. Normal primary human fibroblasts obtained from the Coriell Institute (Camden, N.J.) were cultured in 70 mm dishes in DMEM supplemented with 10% FBS and 1× penicillin/streptomycin at 37° C. and 5% CO2. Human fibroblasts were incubated in the presence of the serum fractions, compound pDAG, the peptide moiety of pDAG, or diacylglycerol. In the initial experiments we examined the differences between fibroblasts treated with the various serum fractions, synthetic pDAG (the peptide moiety from pDAG or diacylglycerol), fibroblasts treated with LPS as a positive control, and fibroblasts without treatment. The culture medium was stored at −80° C. for ELISA of the excreted cytokine proteins (see below). Total RNA from fibroblasts was extracted using the RNeasy Mini kit (Qiagen, Valencia, Calif.) according to the manufacturer's protocol. To verify the expression of transcripts; 2.0 μg of total RNA was reverse-transcribed using Super-script-III reverse transcriptase (Invitrogen, Carlsbad Calif.), according to the manufacturer's protocol. Transcripts were quantified using SYBR Green PCR amplification (Perkin Elmer, Waltham Mass.). Primers employed in these studies are outlined in Table 6, below. All transcripts were normalized to β-actin. Briefly, 0.4 μg/μL of cDNA was tested with 10 μM of each specific primer and 1× SYBR Green in a total volume of 20 uL.
(§3) Bioassays. The fractions generated from dialysis (methanol/chloroform soluble, methanol/chloroform insoluble, dialysis retentate, and the fractions collected from reversed phase HPLC) were taken to dryness by lyophilization. The freeze-dried solids were weighed and dissolved in the appropriate volume of deionized water to give a final concentration of 1 mg/mL and assayed for mRNA expression (IL-6, IL-8, MIP1α, and MIP1β) in human fibroblasts.

[4] = test system: human fibroblasts; assay: Inflammatory cytokine and chemokine production by human fibroblasts (overall stimulation); settings: peptide moiety, not transfected
Method: as §2
Lipofection Studies. Cells were cultured so that at the time of transfection they were 50-80% confluent. […] PLUS reagent (0.5 μL) and lipofectamine (1 μL) were then added to the peptide Opti-MEM solution, vortexed and incubated at room temperature for 30 min. Five hundred microliters of complete DMEM was added to the fibroblasts and 0.6 μL of the peptide/lipofectamine was added and allowed to incubate overnight.

[5] = test system: IL-6 mRNA; assay: IL-6 mRNA expression in human fibroblasts; settings: transfected peptide 10 ng/mL (~3 nM)
Method: as §2
(§4) Lipofection Studies. Cells were cultured so that at the time of transfection they were 50-80% confluent. […] PLUS reagent (0.5 μL) and lipofectamine (1 μL) were then added to the peptide Opti-MEM solution, vortexed and incubated at room temperature for 30 min. Five hundred microliters of complete DMEM was added to the fibroblasts and 0.6 μL of the peptide/lipofectamine was added and allowed to incubate overnight. RNA was extracted and processed as described above.
as §3

[6] = test system: IL-33 mRNA; assay: IL-33 mRNA expression in human fibroblasts; settings: transfected peptide 10 ng/mL (~3 nM)
Method: Therefore we speculated that the diacylglycerol moiety enabled the peptide to cross the cell membrane. To test this hypothesis and to ascertain the biological role of the diacylglycerol moiety in compound pDAG, if any, the peptide moiety transfected into human fibroblasts or diacylglycerol alone were evaluated by measuring the expression of mRNA (IL-1, IL-6, IL-8, IL-18, and IL-33). […] Diacylglycerol could stimulate mRNA expression of IL-33 and IL-18, but not IL-1 in fibroblasts. […] Normal primary human fibroblasts obtained from the Coriell Institute (Camden, N.J.) were cultured in 70 mm dishes in DMEM supplemented with 10% FBS and 1× penicillin/streptomycin at 37° C. and 5% CO2. Human fibroblasts were incubated in the presence of the serum fractions, compound pDAG, the peptide moiety of pDAG, or diacylglycerol. In the initial experiments we examined the differences between fibroblasts treated with the various serum fractions, synthetic pDAG (the peptide moiety from pDAG or diacylglycerol), fibroblasts treated with LPS as a positive control, and fibroblasts without treatment. The culture medium was stored at −80° C. for ELISA of the excreted cytokine proteins (see below). […] Transcripts were quantified using SYBR Green PCR amplification (Perkin Elmer, Waltham Mass.). […]

[7] = test system: MIP-1 mRNA; assay: MIP-1 mRNA expression in human fibroblasts; settings: peptide transfected
Method: as §2, §3

[8] = test system: IL-8 mRNA; assay: IL-8 mRNA expression in human fibroblasts; settings: transfected peptide 10 ng/mL (~3 nM)
Method: as §2, §4
Bioassays. The fractions generated from dialysis (methanol/chloroform soluble, methanol/chloroform insoluble, dialysis retentate, and the fractions collected from reversed phase HPLC) were taken to dryness by lyophilization. […]

| Compound | increase in IL-18 mRNA expression ([1]; diacylglycerol alone, ~30 nM) | IL-1 mRNA vs untreated or lipofectamine-only fibroblasts [2] | IL-18 mRNA vs untreated or lipofectamine-only fibroblasts ([1]; transfected peptide 10 ng/mL (~3 nM)) | increase in IL-18 mRNA expression ([1]; transfected peptide, ~10 nM) | MCP-1 expression in fibroblasts (in words) [3] | fold higher concentration than pDAG needed for comparable responses [4] | IL-6 mRNA vs untreated or lipofectamine-only fibroblasts [5] | IL-33 mRNA vs untreated or lipofectamine-only fibroblasts [6] | MIP-1α expression in fibroblasts (in words) [7] | IL-8 mRNA vs untreated or lipofectamine-only fibroblasts [8] |
| --- | --- | --- | --- | --- | --- | --- | --- | --- | --- | --- |
| CCCCC/C=C\C/C=C\C/C=C\C/C=C\CCCC(=O)O[C@@H](CO)COC(=O)CCCCCCCCCCCCCCCCC [diacylglycerol, 1-stearoyl-2-arachidonoyl-sn-glycerol, reference compound] | 20% |  |  |  |  |  |  |  |  |  |
| acALYDKGYTSKEQKDCVGI [peptide moiety of pDAG] |  | substantially increased | substantially increased | > 3 fold | increased expression | 1,000 fold | substantially increased | substantially increased | increased expression | substantially increased |
